Experiment [1] concerns hepatitis B virus (HBV). Kind of experiment: Humanized liver chimeric mouse model of chronic HBV infection, serum HBsAg by EIA. The experiment is classed as in vivo. Conditions: mean ± SEM. The procedure:
(§1) This work was conducted in a well-established humanized liver chimeric mouse model of chronic hepatitis B virus (HBV) infection (Tsuge et al., Hepatology, 42(5), 1046-54 (2005)). A persistent level of HBV infection was established in the animals prior to the treatment phase which started at Day 0.
(§2) The anti-HBV effects were assessed based on serum HBsAg levels using the GS HBsAg EIA 3.0 enzyme linked immunosorbent assay kit from Bio-Rad Laboratories as per manufacturer instructions; and serum HBV DNA levels measured from total extracted DNA using a quantitative PCR assay (primer/probe sequences from Tanaka et al., Journal of Medical Virology, 72, 223-229 (2004)).

Experiment [2] deals with HBV cccDNA-dependent precore RNA in DESHAe82 cells. Kind of experiment: DESHAe82 / DE19 cell culture system, cccDNA-derived precore RNA by qRT-PCR, MacSynergy II. Conditions: ETV μM: 0.01, 0.0032, 0.001, 0.0003, 0.0001, 3E−05, 0. The experiment is classed as cell-based, Hepatitis B virus. The protocol:
In vitro combination studies were conducted using a modification of the assay system described in Cai et al (Antimicrobial Agents Chemotherapy, 2012. Vol 56(8):4277-88). A previously developed HepDE19 cell culture system (Guo et al. J. Virology (2007) 81(22): 12472-12484) supports HBV DNA replication and cccDNA formation in a tetracycline (Tet)-regulated manner, and produces a detectable reporter molecule which is dependent upon the production and maintenance of cccDNA.
In the HepDE19 cell culture system, the reporters are the precore RNA and its cognate protein product, the secreted HBV “e antigen” (HBeAg). In HepDE19 cells, precore RNA and HBeAg are only produced from the cccDNA circular template, because the ORF of HBeAg and its 5′ RNA leader are separated between the opposite ends of the integrated viral genome, and only become contiguous with the formation of cccDNA. Although an assay based on the HepDE19 cell culture system is effective for determining activity, the results of high throughput screening may be complicated because the HBeAg ELISA cross reacts with a viral HBeAg homologue, which is the core antigen (HBcAg) expressed largely in a cccDNA-independent fashion in HepDE19 cells. To overcome this complication, an alternative cell culture system (designated herein as DESHAe82 cell culture system and described in PCT/EP/2015/06838) has been developed which includes an in-frame HA epitope tag in the N-terminal coding sequence of HBeAg in the transgene of DESHAe82 cells, without disrupting any cis-element critical for HBV replication, cccDNA transcription, and HBeAg secretion.
A chemiluminescence ELISA assay (CLIA) for the detection of HA-tagged HBeAg with HA antibody serving as capture antibody and […] has been developed, eliminating the contaminating signal from HBcAg. […] In addition, a protocol for quantitative reverse transcription and polymerase chain reaction (qRT-PCR) that is specific for detection of precore RNA in either DE19 or DESHAe82 cells was developed and is also used for the detection of the cccDNA-dependent mRNA (precore RNA) that is translated to produce HBeAg or HA-HBeAg.
To test the compound combinations, DESHAe82 or DE19 cells (as indicated in examples) were plated in 96 well tissue-culture treated microtiter plates in DMEM/F12 medium supplemented with 10% fetal bovine serum+1% penicillin-streptomycin with Tet, and incubated in a humidified incubator at 37° C. and 5% CO2 overnight. […] The two inhibitors were tested both singly as well as in combinations in a checkerboard fashion such that each test concentration of inhibitor A was combined with each test concentration of inhibitor B to determine their combination effects on inhibition of cccDNA formation and expression. Untreated negative control samples (0.5% DMSO or media only) were included on each plate in multiple wells. Following a 9 day-incubation, media was removed and cells were subjected to RNA extraction to measure the cccDNA-dependent precore mRNA level. Total cellular RNAs were extracted using a 96-well format total RNA isolation kit ([…]-NAGEL, Cat. 740466.4) by following the instruction of manufacturer (vacuum manifold processing, two more extra washes of Buffer RA4). RNA samples were eluted in RNAase-free water. Quantitative real-time RT-PCR was performed with a Roche LightCycler480 and RNA Master Hydrolysis probe (Catalog number 04991885001, Roche) using primers and conditions for specific detection of cccDNA-dependent precore RNA. GAPDH mRNA levels were also detected by standard methods and used to normalize the precore RNA levels.
(In general: In qPCR the cycle at which signal appears reflects the starting amount.)

In experiment [3] the test system is hepatitis B virus (HBV). Kind of experiment: Humanized liver chimeric mouse model of chronic HBV infection, serum HBV DNA by quantitative PCR. Conditions: mean. In kind it is in vivo. The protocol:
as §1, §2

Where [4] appears, read: Day 21, Compound 3 oral 100 mg/kg twice daily, SIRNA-NP iv 3 mg/kg every 2 weeks, ETV oral 1.2 μg/kg daily, pegIFN α-2a sc 30 μg/kg twice a week.
The mark [5] stands for this setting: Day 0 (start of treatment), SEM in the line below.
[6] abbreviates: Day 7, Compound 3 oral 100 mg/kg twice daily, SIRNA-NP iv 3 mg/kg every 2 weeks, ETV oral 1.2 μg/kg daily, pegIFN α-2a sc 30 μg/kg twice a week.

For the molecule `CC[C@@H](C)NS(=O)(=O)c1ccc(F)c(C(=O)Nc2ccc(F)c(F)c2)c1` [Compound 3], the “Serum HBsAg” value in experiment [1] (Day 0 (start of treatment)) came to 2965 ± 616 IU/mL; in experiment [1] (setting [4]) it was 4158 ± 355 IU/mL. The “Average percent inhibition versus negative control (precore RNA)” value in experiment [2] (Compound 3 0.032 μM) is −26.280%; in experiment [2] (Compound 3 0.100 μM), −86.920%; in experiment [2] (Compound 3 0.317 μM), 36.240%; in experiment [2] (Compound 3 1.001 μM), 67.120%; in experiment [2] (Compound 3 3.165 μM), 90.600%; in experiment [2] (Compound 3 10 μM), 84.340%. The “Serum HBV DNA” value in experiment [3] (setting [5]) is 1.70E+08 Copies/mL; in experiment [3] (setting [6]), 1.33E+07 Copies/mL; in experiment [3] (Day 14, same dosages), 1.28E+07 Copies/mL; in experiment [3] (Day 21, same dosages) it was 1.02E+07 Copies/mL; in experiment [3] (Day 28, same dosages), 1.17E+07 Copies/mL.

`C=C1[C@H](CO)[C@@H](O)C[C@@H]1n1cnc2c(=O)[nH]c(N)nc21` [Entecavir]: the results for the “Serum HBsAg” value in experiment [1] (Day 0 (start of treatment)) and in experiment [1] (setting [4]) were 2649 ± 282 IU/mL and 2975 ± 629 IU/mL, respectively. Moreover, the “Serum HBV DNA” value was determined as 1.48E+08 Copies/mL in experiment [3] (setting [5]); 2.35E+07 Copies/mL in experiment [3] (setting [6]); 1.38E+07 Copies/mL in experiment [3] (Day 14, same dosages); 1.35E+07 Copies/mL in experiment [3] (Day 21, same dosages); 9.33E+06 Copies/mL in experiment [3] (Day 28, same dosages).

The record behind these values is US20220265817A1, “THERAPEUTIC COMPOSITIONS AND METHODS FOR TREATING HEPATITIS B” (priority 2017, published 2022).
